Results taken from patent US20080051364A1, “Therapeutic Treatment of Accelerated Bone Resorption” (priority 2004, published 2008).

Tests used:
AIA rats [1] = assay: Clinical disease score and paw thickness in the Adjuvant Induced Arthritis (AIA) rat model; assay type: in vivo
Method: (§1) Female Lewis rats, aged 8-10 weeks, obtained from Harlan Laboratories (Jerusalem, Israel), were injected subcutaneously (SC) at the tail base with 100 μl of suspension composed of incomplete Freund's adjuvant with 10 mg/ml heat killed Mycobacterium tuberculosis. Each group contained 10 animals and each experiment was conducted at least three times.
(§2) Drugs were orally administered by gavage, twice daily. The […] received vehicle only (DMSO in a dilution corresponding to that of the drug) while the treatment groups received 10 μg/kg of IB-MECA. Treatment was initiated on day 14 after vaccination.
The animals were inspected every second day for clinical arthritis. The scoring system ranged from 0-4 of each limb: 0—no arthritis; 1—redness or swelling of one toe/finger joint; 2—redness and swelling of more than one toe/finger joints, 3—the ankle and tarsal-metatarsal joints involvement. 4—entire paw redness or swelling. The inflammatory intensity was also determined in accordance with the increase in the rat hind paw's diameter, measured by caliper (Mitotoyo, Tokyo, Japan).

AIA rats [2] = assay: Histological score of joints of AIA rats; assay type: in vivo, rat
Method: as §1, §2
The foot, knee and hip region of both vehicle and CF101 treated animals were collected and fixed in 10% buffered formalin and decalcified in hydrochloric acid (Calci-Clear Rapid) (Pational Diagnostics, Gr, USA) for 24 h. The specimens were then processed for paraffine embedding, histologic 4-μm sections were cut and stained with hematoxylin and eosin. The sections were assessed by a pathologist blinded to the treatment protocols, and each joint was scored separately. The histology score was assessed as follows: A score of 0 to 4 for the extent of inflammatory cells' infiltration to was used according to the followed: 0—Normal; 1—minimal inflammatory infiltration; 2—mild infiltration; 3—moderate infiltration; 4—marked infiltration. The pannus formation joint tissues, synovial lining cell hyperplasia. The score was graded […]: 0—normal; 1—minimal loss of cortical bone at a few sites; 2—mild loss of cortical trabecular bone; 3—moderate loss of bone at many sites; 4—marked loss of bone at many sites; 5—marked loss of bone at many sites with fragmenting and full thickness penetration of inflammatory process or pannus into the cortical bone. The mean of all the histological parameter scores were designated “Histology Score”.
At day 23 after the disease induction, the animals were scarified, and joints from two hind paws of each animal were harvested and examined histologically. The histological analysis was carried out on the basis of infiltration of inflammatory cells, synovial hyperplasia, cartilage and bone destruction. Most of the histophathological changes were found in the interophalangeal region of the foot. […] Overall, the severity of joint histopathology was correlated with the clinical severity index.

[3] = tested on: key signaling protein expression down-stream to A3AR activation in paw extracts; assay: Western blot analysis of key signaling proteins in paw extracts from AIA rats; assay type: in vivo, rat
Method: The hind paws were dissected above the ankle joint. The bony tissue was broken into pieces broken, snap frozen in liquid nitrogen and stored at −80° C. until use. The paw tissues were added to (4 ml/g tissue) RIPA extraction buffer containing 150 mM NaCl, 50 mM Tris, 1% NP40, 0.5% Deoxycholate and 0.1% SDS. Tissues were homogenized on ice with a polytron, centrifuged and the supernatans were subjected to Western Blot analysis
Western blot analysis (WB) of paw extracts were carried out according to the following protocol. Samples were rinsed with ice-cold PBS and transferred to ice-cold lysis buffer (TNN buffer, 50 mM Tris buffer pH=7.5, 150 mM NaCl, NP 40). Cell debris was removed by centrifugation for 10 min, at 7500×g. Protein concentrations were determined using the Bio-Rad protein assay dye reagent. Equal amounts of the sample (50 μg) were separated by SDS-PAGE, using 12% polyacrylamide gels. The resolved proteins were then electroblotted onto nitrocellulose membranes (Schleicher & Schuell, Keene, N.H., USA). Membranes were blocked with 1% BSA and incubated with the desired primary antibody (dilution 1:1000) for 24 h at 4° C. Blots were then washed and incubated with a secondary antibody for 1 h at room temperature. Bands were recorded using BCIP/NBT color development kit (Promega, Madison, Wis., USA). Data presented in the different figures are representative of at least four different experiments.
The hind paws of animals from the control and IB-MECA treated groups were dissected and after protein extraction the samples were subjected for WB analysis. […] The activation of the A3AR led to a 40% decrease in the RANKL protein expression level in paw extracts derived from IB-MECA treated AIA rats. […] This Chain of events led a 50% reduction in the expression level of TNF-α upon IB-MECA treatment.

[4] = Plasma half life in human studies; assay type: in vivo; details: data not shown
Method: (§3) Based on the above conversion methods, the preferred dosage range for two specific A3AR agonist, e.g. IB-MECA and Cl-IB-MECA, would be less than 4 mg, typically within the range of about 0.01 to about 2 mg (about 0.14-28 micrograms/Kg, respectively) and desirably within the range of about 0.1 to 1.5 mg (about 1.4-21 micrograms/Kg, respectively). This dose may be administered once, twice or, at times, several times a day.

Plasma half life in mice = assay type: in vivo
Method: as §3

[5] = tested on: Adjuvant Induced Arthritis (AIA), collagen induced arthritis (CIA) and thropomyosine induced arthritis; details: different experimental animal models; Baharav et al. 2004; cited from earlier work

CNC(=O)[C@H]1O[C@@H](n2cnc3c(NCc4cccc(I)c4)ncnc32)[C@H](O)[C@@H]1O [IB-MECA, N^6-(3-iodobenzyl)-adenosine-5′-N-methyluronamide]
paw edema (AIA rats [1]; AIA rats, 10 μg/kg orally twice daily from day 14): significantly decreased
inhibition in the paw thickness (AIA rats [1]; AIA rats, 10 μg/kg orally twice daily from day 14 (FIG. 1B)): 35%±1.2
maximal clinical arthritic score (AIA rats [1]; AIA rats, 10 μg/kg orally twice daily from day 14, score 0-4 of each limb, control 8.7±0.76 (FIG. 1A)): 4.8±0.95
paw appearance (redness and swelling) (AIA rats [1]; representative paw vs control group (FIG. 1C)): appears completely normal
bone loss (AIA rats [2]; AIA rat model, summary statement): prevents bone loss
fibrosis and hyperplasia of the synovia (AIA rats [2]; day 23 (FIGS. 3A-3B)): almost no the fibrosis and mild hyperplasia of the synovia
pannus tissue development (AIA rats [2]; day 23 (FIGS. 4A-4B)): mild evidence for a development of pannus tissue
cartilage texture / destruction (AIA rats [2]; day 23 (FIGS. 5A-5B)): appeared to be normal
presence of osteoblasts (AIA rats [2]; day 23 (FIGS. 8A-8B)): low presence of osteoblasts
new bone formation (AIA rats [2]; day 23 (FIGS. 9A-9B)): slight new bone formation
reduction in the appearance of osteoclasts (AIA rats [2]; day 23, in comparison to the control group (FIGS. 6A-6B)): 73%
inflammatory changes in the joints, mean total score (AIA rats [2]; day 23, score 0-4, control 3.2±0.14 (FIGS. 2A-2B)): 0.4±0.034
histopathological changes in the knee region (AIA rats [2]; day 23 after disease induction, vs vehicle group): remained intact
A3AR expression ([3]; WB (FIG. 10A)): Modulation in the A3AR itself was noted
decrease in the RANKL protein expression level ([3]; WB (FIG. 10B)): 40%
level of IKK ([3]; WB (FIG. 10C)): down-regulation
level of NF-κB ([3]; WB (FIG. 10C)): reduced level
reduction in the expression level of TNF-α ([3]; WB (FIG. 10C)): 50%
PI3K protein expression level ([3]; WB, vs control (FIG. 10C)): reduction in the protein expression level
PKB/AKT protein expression level ([3]; WB, vs control (FIG. 10C)): reduction in the protein expression level
half life in plasma [4]: 8 to 10 h
half life (Plasma half life in mice): 1.5 h
clinical and pathological manifestations of arthritis [5]: efficacious in preventing the clinical and pathological manifestations of arthritis
